Like-named read-outs stand apart in the source and are kept apart here.
Legend:
Assay in all cases: KiNativ assay
Assay type in all cases: binding
Settings in all cases: H929 live cell
[1] = molecular target: CaMK2d (Homo sapiens (Human), UniProt Q13557)
Method: (§1) Biochemical IC50s of the compounds of the present disclosure against various kinases were measured in a KiNativ assay. Compounds were screened in duplicate at 10 μM in H929 live cell. IC50 was measured via Mass spectroscopy (MS).

[2] = test system: CDK11, CDK8
Method: as §1

[3] = molecular target: SNRK (Homo sapiens (Human), UniProt Q9NRH2)
Method: as §1

[4] = molecular target: CDK2 (Homo sapiens (Human), UniProt P24941)
Method: as §1

[5] = test system: p38d, p38g
Method: as §1

[6] = molecular target: PKD2 (Homo sapiens (Human), UniProt Q9BZL6)
Method: as §1

[7] = molecular target: ILK (Homo sapiens (Human), UniProt Q13418)
Method: as §1

[8] = molecular target: RSK2 domain1 (Homo sapiens (Human), UniProt P51812)
Method: as §1

[9] = molecular target: CK1a (Homo sapiens (Human), UniProt P48729)
Method: as §1

[10] = molecular target: SRPK2 (Homo sapiens (Human), UniProt P78362)
Method: as §1

[11] = molecular target: RSK1 domain1 (Homo sapiens (Human), UniProt Q15418)
Method: as §1

[12] = molecular target: MASTL (Homo sapiens (Human), UniProt Q96GX5)
Method: as §1

[13] = molecular target: TLK2 (Homo sapiens (Human), UniProt Q86UE8)
Method: as §1

[14] = molecular target: EphB2 (Homo sapiens (Human), UniProt P29323)
Method: as §1

[15] = molecular target: STLK5 (Homo sapiens (Human), UniProt Q7RTN6)
Method: as §1

[16] = molecular target: HPK1 (Homo sapiens (Human), UniProt Q92918)
Method: as §1

[17] = molecular target: RSK1 domain2 (Homo sapiens (Human), UniProt Q15418)
Method: as §1

[18] = molecular target: ACK (Homo sapiens (Human), UniProt Q07912)
Method: as §1

[19] = molecular target: PLK1 (Homo sapiens (Human), UniProt P53350)
Method: as §1

[20] = molecular target: NEK7 (Homo sapiens (Human), UniProt Q8TDX7)
Method: as §1

[21] = molecular target: CDK5 (Homo sapiens (Human), UniProt Q00535)
Method: as §1

[22] = molecular target: MAP2K3 (Homo sapiens (Human), UniProt P46734)
Method: as §1

[23] = molecular target: NuaK2 (Homo sapiens (Human), UniProt Q9H093)
Method: as §1

[24] = molecular target: NEK4 (Homo sapiens (Human), UniProt P51957)
Method: as §1

[25] = molecular target: PRPK (Homo sapiens (Human), UniProt Q96S44)
Method: as §1

[26] = molecular target: PIK3C3 (Homo sapiens (Human), UniProt Q8NEB9)
Method: as §1

[27] = molecular target: MPSK1 (Homo sapiens (Human), UniProt O75716)
Method: as §1

[28] = molecular target: MAP2K6 (Homo sapiens (Human), UniProt P52564)
Method: as §1

[29] = molecular target: JAK1 domain1 (Homo sapiens (Human), UniProt P23458)
Method: as §1

[30] = test system: MST4
Method: as §1

[31] = molecular target: GCN2 domain2 (Homo sapiens (Human), UniProt Q9P2K8)
Method: as §1

[32] = molecular target: PIP4K2A (Homo sapiens (Human), UniProt P48426)
Method: as §1

[33] = molecular target: PEK (Homo sapiens (Human), UniProt Q9NZJ5)
Method: as §1

MPSK1, sequence (O75716 whole entry): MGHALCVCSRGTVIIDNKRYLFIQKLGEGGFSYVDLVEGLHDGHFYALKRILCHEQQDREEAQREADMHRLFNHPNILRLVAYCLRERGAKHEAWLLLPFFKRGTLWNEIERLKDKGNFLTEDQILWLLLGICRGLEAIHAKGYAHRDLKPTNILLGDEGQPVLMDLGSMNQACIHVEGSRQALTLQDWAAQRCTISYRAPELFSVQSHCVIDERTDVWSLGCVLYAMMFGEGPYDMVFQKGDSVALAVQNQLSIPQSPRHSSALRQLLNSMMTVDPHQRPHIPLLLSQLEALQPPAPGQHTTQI
MASTL, sequence (Q96GX5 whole entry): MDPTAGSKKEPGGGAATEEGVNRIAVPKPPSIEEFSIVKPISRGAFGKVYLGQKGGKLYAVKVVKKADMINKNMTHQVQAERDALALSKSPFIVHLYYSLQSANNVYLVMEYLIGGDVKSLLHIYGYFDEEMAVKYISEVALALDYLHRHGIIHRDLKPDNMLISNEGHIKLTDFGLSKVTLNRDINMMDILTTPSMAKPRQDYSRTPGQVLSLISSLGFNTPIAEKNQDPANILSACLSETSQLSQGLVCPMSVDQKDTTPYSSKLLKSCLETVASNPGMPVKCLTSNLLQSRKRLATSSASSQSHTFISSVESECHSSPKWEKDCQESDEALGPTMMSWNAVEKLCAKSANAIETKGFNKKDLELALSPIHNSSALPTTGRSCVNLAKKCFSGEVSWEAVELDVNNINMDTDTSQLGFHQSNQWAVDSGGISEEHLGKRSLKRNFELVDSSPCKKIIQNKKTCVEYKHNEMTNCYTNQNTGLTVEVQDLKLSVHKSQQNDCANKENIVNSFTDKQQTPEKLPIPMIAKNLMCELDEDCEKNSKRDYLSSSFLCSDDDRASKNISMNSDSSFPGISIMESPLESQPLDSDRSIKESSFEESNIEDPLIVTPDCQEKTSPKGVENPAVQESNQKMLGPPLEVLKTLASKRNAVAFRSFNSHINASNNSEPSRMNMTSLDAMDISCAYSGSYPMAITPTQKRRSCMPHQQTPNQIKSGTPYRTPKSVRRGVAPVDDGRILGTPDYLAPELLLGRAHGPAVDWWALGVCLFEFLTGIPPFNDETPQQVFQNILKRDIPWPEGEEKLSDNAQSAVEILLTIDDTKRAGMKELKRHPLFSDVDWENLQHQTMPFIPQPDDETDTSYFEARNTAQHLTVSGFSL
CaMK2d, sequence (Q13557 whole entry): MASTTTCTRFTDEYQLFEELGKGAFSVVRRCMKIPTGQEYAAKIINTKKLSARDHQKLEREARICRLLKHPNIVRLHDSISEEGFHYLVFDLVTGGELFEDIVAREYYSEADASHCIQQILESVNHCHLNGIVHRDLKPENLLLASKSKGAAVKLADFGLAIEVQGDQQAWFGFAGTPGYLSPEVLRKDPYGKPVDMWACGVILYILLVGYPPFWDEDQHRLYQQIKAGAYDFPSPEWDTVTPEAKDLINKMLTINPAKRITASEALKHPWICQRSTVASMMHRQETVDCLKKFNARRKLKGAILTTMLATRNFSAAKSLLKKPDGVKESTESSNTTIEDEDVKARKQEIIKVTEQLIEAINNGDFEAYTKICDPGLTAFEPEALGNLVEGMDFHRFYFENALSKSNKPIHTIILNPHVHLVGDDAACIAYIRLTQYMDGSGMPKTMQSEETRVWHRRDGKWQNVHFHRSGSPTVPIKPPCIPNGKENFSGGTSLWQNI
NEK7, sequence (Q8TDX7 whole entry): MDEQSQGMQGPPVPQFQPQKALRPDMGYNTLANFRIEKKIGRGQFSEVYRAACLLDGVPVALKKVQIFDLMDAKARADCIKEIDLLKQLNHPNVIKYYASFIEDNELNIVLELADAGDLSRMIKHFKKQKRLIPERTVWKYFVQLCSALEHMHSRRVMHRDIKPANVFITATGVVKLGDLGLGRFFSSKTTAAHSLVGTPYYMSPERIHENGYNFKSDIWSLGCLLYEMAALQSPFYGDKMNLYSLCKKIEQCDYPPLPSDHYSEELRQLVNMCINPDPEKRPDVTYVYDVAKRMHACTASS
TLK2, sequence (Q86UE8 whole entry): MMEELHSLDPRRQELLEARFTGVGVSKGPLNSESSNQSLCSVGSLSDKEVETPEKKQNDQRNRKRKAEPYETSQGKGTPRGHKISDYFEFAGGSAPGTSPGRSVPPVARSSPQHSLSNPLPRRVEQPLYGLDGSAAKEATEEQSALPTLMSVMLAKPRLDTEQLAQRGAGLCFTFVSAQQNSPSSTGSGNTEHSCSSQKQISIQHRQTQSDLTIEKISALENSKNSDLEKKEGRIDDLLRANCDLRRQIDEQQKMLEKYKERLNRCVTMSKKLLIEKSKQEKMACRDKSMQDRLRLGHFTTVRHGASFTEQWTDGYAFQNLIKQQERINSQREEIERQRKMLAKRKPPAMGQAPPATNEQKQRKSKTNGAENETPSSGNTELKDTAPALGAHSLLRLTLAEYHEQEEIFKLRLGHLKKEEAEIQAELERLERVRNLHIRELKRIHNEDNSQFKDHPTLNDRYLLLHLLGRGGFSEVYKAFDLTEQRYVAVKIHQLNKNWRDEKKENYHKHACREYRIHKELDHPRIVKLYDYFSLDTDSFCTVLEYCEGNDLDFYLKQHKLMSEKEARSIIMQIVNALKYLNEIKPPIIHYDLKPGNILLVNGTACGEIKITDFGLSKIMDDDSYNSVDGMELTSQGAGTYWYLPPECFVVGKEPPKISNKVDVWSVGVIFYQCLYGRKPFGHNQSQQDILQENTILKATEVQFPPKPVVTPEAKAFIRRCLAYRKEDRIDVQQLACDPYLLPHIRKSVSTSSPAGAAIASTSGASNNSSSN
SNRK, sequence (Q9NRH2 whole entry): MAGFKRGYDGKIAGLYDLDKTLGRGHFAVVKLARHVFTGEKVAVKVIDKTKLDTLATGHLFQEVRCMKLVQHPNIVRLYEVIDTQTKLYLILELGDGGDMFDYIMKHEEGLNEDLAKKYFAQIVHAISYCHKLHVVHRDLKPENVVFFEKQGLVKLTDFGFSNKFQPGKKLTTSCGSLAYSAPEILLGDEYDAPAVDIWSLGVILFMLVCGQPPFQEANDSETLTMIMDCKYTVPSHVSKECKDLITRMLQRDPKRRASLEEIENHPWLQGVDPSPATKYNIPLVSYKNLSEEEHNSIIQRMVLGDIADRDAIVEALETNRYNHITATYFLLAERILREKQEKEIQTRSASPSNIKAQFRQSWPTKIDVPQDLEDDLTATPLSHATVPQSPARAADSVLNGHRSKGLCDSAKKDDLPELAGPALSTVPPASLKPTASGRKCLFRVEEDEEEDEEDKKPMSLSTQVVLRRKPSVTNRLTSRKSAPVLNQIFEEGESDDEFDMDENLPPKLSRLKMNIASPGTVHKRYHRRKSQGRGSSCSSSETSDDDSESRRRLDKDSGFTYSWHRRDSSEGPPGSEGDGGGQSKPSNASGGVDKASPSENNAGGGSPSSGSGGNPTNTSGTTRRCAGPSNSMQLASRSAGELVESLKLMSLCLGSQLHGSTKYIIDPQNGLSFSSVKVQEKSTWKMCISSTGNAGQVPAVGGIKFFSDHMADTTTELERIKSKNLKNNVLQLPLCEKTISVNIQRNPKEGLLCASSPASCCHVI
PKD2, sequence (Q9BZL6 whole entry): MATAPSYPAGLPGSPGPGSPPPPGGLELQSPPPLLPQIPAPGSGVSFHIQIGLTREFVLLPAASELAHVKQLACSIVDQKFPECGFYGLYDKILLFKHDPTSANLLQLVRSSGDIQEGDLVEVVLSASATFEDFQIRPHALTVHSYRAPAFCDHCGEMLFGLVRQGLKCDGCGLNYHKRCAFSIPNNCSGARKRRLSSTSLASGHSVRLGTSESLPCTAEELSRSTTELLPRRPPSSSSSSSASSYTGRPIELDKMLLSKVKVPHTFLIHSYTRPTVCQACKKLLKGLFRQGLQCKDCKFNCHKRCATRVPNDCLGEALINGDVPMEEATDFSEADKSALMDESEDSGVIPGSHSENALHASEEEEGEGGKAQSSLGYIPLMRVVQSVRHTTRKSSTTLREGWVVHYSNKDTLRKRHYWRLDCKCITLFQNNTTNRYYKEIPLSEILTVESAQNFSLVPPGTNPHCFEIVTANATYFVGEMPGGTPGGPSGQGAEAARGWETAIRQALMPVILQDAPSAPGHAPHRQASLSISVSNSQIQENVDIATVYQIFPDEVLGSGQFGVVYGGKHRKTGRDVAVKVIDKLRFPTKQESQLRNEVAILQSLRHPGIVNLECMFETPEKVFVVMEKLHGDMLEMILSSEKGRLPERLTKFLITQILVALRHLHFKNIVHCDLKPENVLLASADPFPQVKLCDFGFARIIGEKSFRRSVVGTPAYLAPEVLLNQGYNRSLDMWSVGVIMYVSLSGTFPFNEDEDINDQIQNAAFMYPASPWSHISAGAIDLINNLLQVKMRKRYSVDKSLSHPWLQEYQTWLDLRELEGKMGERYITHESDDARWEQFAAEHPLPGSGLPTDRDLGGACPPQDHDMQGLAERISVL
CK1a, sequence (P48729 whole entry): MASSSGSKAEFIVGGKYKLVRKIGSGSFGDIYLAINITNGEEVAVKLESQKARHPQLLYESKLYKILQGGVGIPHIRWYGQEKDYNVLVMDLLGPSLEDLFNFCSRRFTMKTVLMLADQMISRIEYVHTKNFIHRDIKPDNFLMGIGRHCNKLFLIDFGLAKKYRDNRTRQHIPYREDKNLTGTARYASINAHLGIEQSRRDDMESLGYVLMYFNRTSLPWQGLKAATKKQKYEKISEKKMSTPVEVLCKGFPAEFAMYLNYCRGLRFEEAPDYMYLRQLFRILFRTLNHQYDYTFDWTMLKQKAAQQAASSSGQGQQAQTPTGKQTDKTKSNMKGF
PRPK, sequence (Q96S44 whole entry): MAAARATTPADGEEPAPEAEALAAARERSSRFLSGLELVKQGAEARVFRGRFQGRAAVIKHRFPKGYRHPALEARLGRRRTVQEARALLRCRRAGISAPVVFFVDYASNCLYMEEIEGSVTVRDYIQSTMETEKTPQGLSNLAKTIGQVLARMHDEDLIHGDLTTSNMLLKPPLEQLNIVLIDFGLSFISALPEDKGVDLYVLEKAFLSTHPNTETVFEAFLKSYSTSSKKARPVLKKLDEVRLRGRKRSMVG

With `Nc1ncc(-c2cccc3ncsc23)cc1-c1ccc2c(c1)CCNC2=O` [Compound I-13, 6-(2-amino-5-(benzo[d]thiazol-7-yl)pyridin-3-yl)-3,4-dihydroisoquinolin-1(2H)-one] the inhibition at 10 µM ([1]; read-out: % inhibition (range)) was 0%, the inhibition at 10 µM ([1]; read-out: inhibition (10 μM)) was -4.3% and the “% inhibition (range)” value ([2]; 10 μM) was 50-75%. For the same molecule, the “inhibition (10 μM)” value [2] was 59.3%, the inhibition at 10 µM ([3]; read-out: % inhibition (range)) was 0% and the inhibition at 10 µM ([3]; read-out: inhibition (10 μM)) was 6.2%. The inhibition at 10 µM ([4]; read-out: % inhibition (range)) was 0%, the inhibition at 10 µM ([4]; read-out: inhibition (10 μM)) was 33.3% and the “% inhibition (range)” value ([5]; 10 μM) was 0.0%. The “inhibition (10 μM)” value [5] was −43.7%, the inhibition at 10 µM ([6]; read-out: % inhibition (range)) was 50 to 75% and the inhibition at 10 µM ([6]; read-out: inhibition (10 μM)) was 52.1%. It also gave an inhibition at 10 µM ([7]; read-out: % inhibition (range)) of 0%, an inhibition at 10 µM ([7]; read-out: inhibition (10 μM)) of 1.6% and an inhibition at 10 µM ([8]; read-out: % inhibition (range)) of 0%. It also gave an inhibition at 10 µM ([8]; read-out: inhibition (10 μM)) of 19.2%, an inhibition at 10 µM ([9]; read-out: % inhibition (range)) of 0% and an inhibition at 10 µM ([9]; read-out: inhibition (10 μM)) of -17.4%. For the same molecule, the inhibition at 10 µM ([10]; read-out: % inhibition (range)) was 0%, the inhibition at 10 µM ([10]; read-out: inhibition (10 μM)) was -14% and the inhibition at 10 µM ([11]; read-out: % inhibition (range)) was 0%. The inhibition at 10 µM ([11]; read-out: inhibition (10 μM)) was 3.3%, the inhibition at 10 µM ([12]; read-out: % inhibition (range)) was 0% and the inhibition at 10 µM ([12]; read-out: inhibition (10 μM)) was -2%. For the same molecule, the inhibition at 10 µM ([13]; read-out: % inhibition (range)) was 0%, the inhibition at 10 µM ([13]; read-out: inhibition (10 μM)) was 12.6% and the inhibition at 10 µM ([14]; read-out: % inhibition (range)) was 0%. For the same molecule, the inhibition at 10 µM ([14]; read-out: inhibition (10 μM)) was 22.1%, the inhibition at 10 µM ([15]; read-out: % inhibition (range)) was 0% and the inhibition at 10 µM ([15]; read-out: inhibition (10 μM)) was 9.9%. For the same molecule, the inhibition at 10 µM ([16]; read-out: % inhibition (range)) was 50 to 75%, the inhibition at 10 µM ([16]; read-out: inhibition (10 μM)) was 52.1% and the inhibition at 10 µM ([17]; read-out: % inhibition (range)) was 0%. It also gave an inhibition at 10 µM ([17]; read-out: inhibition (10 μM)) of -7.7%, an inhibition at 10 µM ([18]; read-out: % inhibition (range)) of 0% and an inhibition at 10 µM ([18]; read-out: inhibition (10 μM)) of 23.3%. The inhibition at 10 µM ([19]; read-out: % inhibition (range)) was 0%, the inhibition at 10 µM ([19]; read-out: inhibition (10 μM)) was 6.6% and the inhibition at 10 µM ([20]; read-out: % inhibition (range)) was 0%. For the same molecule, the inhibition at 10 µM ([20]; read-out: inhibition (10 μM)) was -20.2%, the inhibition at 10 µM ([21]; read-out: % inhibition (range)) was 0% and the inhibition at 10 µM ([21]; read-out: inhibition (10 μM)) was 20%. It also gave an inhibition at 10 µM ([22]; read-out: % inhibition (range)) of 0%, an inhibition at 10 µM ([22]; read-out: inhibition (10 μM)) of 1.1% and an inhibition at 10 µM ([23]; read-out: % inhibition (range)) of 50 to 75%. The inhibition at 10 µM ([23]; read-out: inhibition (10 μM)) was 53.9%, the inhibition at 10 µM ([24]; read-out: % inhibition (range)) was 0% and the inhibition at 10 µM ([24]; read-out: inhibition (10 μM)) was 4.7%. It also gave an inhibition at 10 µM ([25]; read-out: % inhibition (range)) of 0%, an inhibition at 10 µM ([25]; read-out: inhibition (10 μM)) of -6.4% and an inhibition at 10 µM ([26]; read-out: % inhibition (range)) of 0%. For the same molecule, the inhibition at 10 µM ([26]; read-out: inhibition (10 μM)) was 24.8%, the inhibition at 10 µM ([27]; read-out: % inhibition (range)) was 0% and the inhibition at 10 µM ([27]; read-out: inhibition (10 μM)) was -28.8%. It also gave an inhibition at 10 µM ([28]; read-out: % inhibition (range)) of 0%, an inhibition at 10 µM ([28]; read-out: inhibition (10 μM)) of 4.3% and an inhibition at 10 µM ([29]; read-out: % inhibition (range)) of 0%. For the same molecule, the inhibition at 10 µM ([29]; read-out: inhibition (10 μM)) was -22.4%, the “% inhibition (range)” value ([30]; 10 μM) was 0.0% and the “inhibition (10 μM)” value [30] was 29.3%. For the same molecule, the inhibition at 10 µM ([31]; read-out: % inhibition (range)) was 0%, the inhibition at 10 µM ([31]; read-out: inhibition (10 μM)) was 13.5% and the inhibition at 10 µM ([32]; read-out: % inhibition (range)) was 0%. The inhibition at 10 µM ([32]; read-out: inhibition (10 μM)) was 2.3%, the inhibition at 10 µM ([33]; read-out: % inhibition (range)) was 0% and the inhibition at 10 µM ([33]; read-out: inhibition (10 μM)) was -40.8%.
